From patent US7847132B2, “Hepatic fibrosis inhibitor” (Nippon Hypox Laboratories Incorporated, priority 2008, dated 2010)
Marks after values point to notes of the source that are not given here.

Key:
[1] = test system: rat model with carbon tetrachloride-induced liver cirrhosis; test: Rat model with carbon tetrachloride-induced liver cirrhosis, Experimental Example 1 (compound 1 0.3 mg/mL in potable water); assay type: in vivo
Experimental: (§1) To six-week-old Wister male rats, 3 mL/kg of olive oil containing 40% of carbon tetrachloride or olive oil only were subcutaneously administered twice per week for eight weeks. On a parallel with the administration of the carbon tetrachloride, potable water in which 2,3,5-trimethyl hydroquinone-1-hexylether (compound 1) of the hydroquinone derivative identified by the aforementioned general chemical formula (1) is dissolved at a concentration of 0.3 mg/mL was given to one group of rats daily. Simultaneously, to another groups of rats, only water was given.
(§2) There were adopted four animal groups, i.e. olive oil administration group, olive oil-plus-compound 1 administration group, carbon tetrachloride administration group, and carbon tetrachloride-plus-compound 1 administration group, in the experimental example. Each group consists of ten animals. The animals were slaughtered eight weeks after start of administration of the carbon tetrachloride to carry out an examination. The examination items include ELISA measurement of the serum antibody valency of Naofen and RT-PCR measurement of the mRNA-expression level of Naofen in the liver.

[2] = test system: rat model with carbon tetrachloride-induced liver cirrhosis; test: Rat model with carbon tetrachloride-induced liver cirrhosis, Experimental Example 2 (compound 1 0.1 mg/mL in potable water); assay type: in vivo; settings: for HA / ALB / ALT / AST / T-Bil: blood; for HA / ALB / ALT / AST / T-Bil / Body weight / Hepatic relative weight / Pancreatic relative weight / Number of animals with ascites retention: n = 10
Experimental: as §1, §2
An experimental examination was carried out with a rat model with carbon tetrachloride-induced liver cirrhosis in the same manner as the aforementioned experimental Example 1 except for use of the compound 1 with a concentration of 0.1 mg/mL. The examination includes measurements of some hepatic damage indexes such as blood AST, ALT, albumin (ALB) and total bilirubin (T-Bil), measurement of hyaluronan (HA) concentration serving as a maker of hepatic fibrosis, autopsy finding, measurements of body weight and organ weight, measurements of expression levels of TGF-β1 mRNA and type-I collagen mRNA in biologic cells by RT-PCR, and a histopathologic inspection.
The examination results of measurements of the liver weight, spleen weight, and number of animals with ascites retention are shown in Table 3. FIGS. 4 and 5 are photographs of hepatic tissues taken by using a Masson staining method and an immunohistochemical staining method (A: olive oil administration case, B: carbon tetrachloride administration case, C: olive oil-plus-compound 1 administration case, and D: carbon tetrachloride-plus-compound 1 administration case; and horizontal line on the bottom right: 100 μm).

[3] = HX (+) group, 0.3 mg/mL in potable water, 8 weeks, total 7 animals
[4] = CCl4 + Compound 1 0.1 mg/mL in potable water, 8 weeks, mean ± SD
[5] = CCl4 + compound 1 0.1 mg/mL, result in words
[6] = Olive Oil + Compound 1 0.1 mg/mL in potable water, 8 weeks, mean ± SD
[7] = Olive Oil + Compound 1 0.1 mg/mL in potable water, 8 weeks

abnormality in olive oil-plus-compound 1 administration group ([1]; olive oil + compound 1 0.3 mg/mL in potable water, 8 weeks): no appreciable abnormality | ALB [2, 6]: 4.3 ± 0.1 g/dL | HA [2, 6]: 136.7 ± 16.6 ng/mL | T-Bil [2, 7]: 0 mg/dL | Number of animals with ascites retention [2, 7]: 0 | abnormality in olive oil-plus-compound 1 administration group ([2]; olive oil + compound 1 0.1 mg/mL in potable water, 8 weeks): no appreciable abnormality
Structure (SMILES): CCCCCCOc1cc(C)c(O)c(C)c1C [Compound 1, 2,3,5-trimethyl hydroquinone-1-hexylether]
increase in mRNA-expression level of Naofen in the liver (RT-PCR) ([1]; CCl4 + compound 1 0.3 mg/mL in potable water, weeks 6(+), weeks 8(+), FIG. 1): suppressed | number of animals with serum antibody valency of Naofen 4 < V < 16 (ELISA) [1, 3]: 1 | number of animals with serum antibody valency of Naofen V <= 4 (ELISA) [1, 3]: 4 | number of animals with serum antibody valency of Naofen V >= 16 (ELISA) [1, 3]: 2 | antibody valency increase more than 16 times, compound 1 group (+) versus group (−), Fischer direct probability ([1]; serum antibody valency of Naofen, 0.3 mg/mL in potable water): significantly fewer | HA ([2]; CCl4 + Compound 1 0.1 mg/mL in potable water, 8 weeks, marker of hepatic fibrosis, mean ± SD): 237.7 ± 36.6*^+ ng/mL | ALB [2, 4]: 3.8 ± 0.2*^+ g/dL | ALT [2, 4]: 422.4 ± 60.5**^++ IU/L | AST [2, 4]: 603.6 ± 126.3**^++ IU/L | T-Bil [2, 4]: 0.03 ± 0.02^+ mg/dL | Body weight [2, 4]: 240.8 ± 8.7 g | Hepatic relative weight [2, 4]: 16.1 ± 1.8^+ g (per 100 grams of body weight) | Pancreatic relative weight [2, 4]: 0.28 ± 0.01^+ g (per 100 grams of body weight) | Number of animals with ascites retention ([2]; CCl4 + Compound 1 0.1 mg/mL in potable water, 8 weeks): 1 | increase in TGF-β1 mRNA-expression level in the liver (RT-PCR) ([2]; CCl4 + compound 1 0.1 mg/mL, FIG. 2): suppressing increase | increase in type-I collagen mRNA-expression level in the liver (RT-PCR) ([2]; CCl4 + compound 1 0.1 mg/mL, FIG. 3): suppressing increase | accumulation of fibrous tissue (histopathologic inspection, Masson staining) ([2]; CCl4 + compound 1 0.1 mg/mL, hepatic tissue, FIG. 4): suppressed | expression of TGF-β1 (histopathologic inspection, immunohistochemical staining) ([2]; CCl4 + compound 1 0.1 mg/mL, hepatic tissue, FIG. 5): suppressed | increase in ALT due to administration of carbon tetrachloride [2, 5]: suppressing increase | increase in AST due to administration of carbon tetrachloride [2, 5]: suppressing increase | increase in hyaluronan concentration due to administration of carbon tetrachloride [2, 5]: suppressing increase | ALT [2, 6]: 93.7 ± 34.1 IU/L | AST [2, 6]: 192.7 ± 93.4 IU/L | Body weight [2, 6]: 361.5 ± 1.5 g | Hepatic relative weight [2, 6]: 14.8 ± 1.5 g (per 100 grams of body weight) | Pancreatic relative weight [2, 6]: 0.20 ± 0.01 g (per 100 grams of body weight)
